According to ChEMBL document CHEMBL1201862, “PubChem BioAssay data set” (2004):
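A five-concentration, 48-hour dose response in 96-well plates underlies each endpoint, interpolated linearly between surrounding concentrations. GI50 = concentration required for 50% inhibition of growth.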 Activity calls are given as the source filed them. Cut-off read from the data, not from the text of the source: active = GI50 up to about 1.1 µM and inactive = higher.

How the values were obtained:
Assay in all cases: NCI tumour cell line growth inhibition, 48 h
[1] = test system: 786-0
[2] = test system: A498
[3] = test system: A549
[4] = test system: ACHN
[5] = test system: BT-549
[6] = test system: CAKI-1
[7] = test system: CCRF-CEM
[8] = test system: COLO 205
[9] = test system: DU-145
[10] = test system: EKVX
[11] = test system: HCC 2998
[12] = test system: HCT-116
[13] = test system: HCT-15
[14] = test system: HL-60
[15] = test system: HOP-62
[16] = test system: HOP-92
[17] = test system: HT-29
[18] = test system: Hs-578T
[19] = test system: IGROV-1
[20] = test system: K562
[21] = test system: KM12
[22] = test system: LOX IMVI
[23] = test system: M14
[24] = test system: MCF7
[25] = test system: MDA-MB-231
[26] = test system: MDA-MB-435
[27] = test system: MDA-N
[28] = test system: MOLT-4
[29] = test system: Malme-3M
[30] = test system: NCI-H226
[31] = test system: NCI-H23
[32] = test system: NCI-H460
[33] = test system: NCI-H522
[34] = test system: NCI/ADR-RES
[35] = test system: OVCAR-3
[36] = test system: OVCAR-4
[37] = test system: OVCAR-5
[38] = test system: OVCAR-8
[39] = test system: PC-3
[40] = test system: RPMI-8226
[41] = test system: RXF 393
[42] = test system: SF-268
[43] = test system: SF-295
[44] = test system: SF-539
[45] = test system: SK-MEL-28
[46] = test system: SK-MEL-2
[47] = test system: SK-MEL-5
[48] = test system: SK-OV-3
[49] = test system: SN12C
[50] = test system: SNB-19
[51] = test system: SNB-75
[52] = test system: SR
[53] = test system: SW-620
[54] = test system: T47D
[55] = test system: TK-10
[56] = test system: U-251
[57] = test system: UACC-257
[58] = test system: UACC-62
[59] = test system: UO-31

**Q.** For `N#Cc1c(C#N)c(SSc2c(C#N)c(C#N)c(N)n2-c2ccc(F)cc2)n(-c2ccc(F)cc2)c1N`, which GI50 [1] is on record?
**A.** 1.79 µM (inactive)

**Q.** And the GI50 [2]?
**A.** 8.11 µM (inactive)

**Q.** And the GI50 [3]?
**A.** 18.9 µM (inactive)

**Q.** And the GI50 [4]?
**A.** 3.66 µM (inactive)

**Q.** What about the GI50 [5] of the same compound?
**A.** 2.88 µM (inactive)

**Q.** What about the GI50 [6] of the same compound?
**A.** 8.17 µM (inactive)

**Q.** And the GI50 [7]?
**A.** 2.02 µM (inactive)

**Q.** And the GI50 [8]?
**A.** 1.95 µM (inactive)

**Q.** And the GI50 [9]?
**A.** 16 µM (inactive)

**Q.** What about the GI50 [10] of the same compound?
**A.** 2.2 µM (inactive)

**Q.** And the GI50 [11]?
**A.** 21.8 µM (inactive)

**Q.** What about the GI50 [12] of the same compound?
**A.** 1.9 µM (inactive)

**Q.** And the GI50 [13]?
**A.** 2.03 µM

**Q.** And the GI50 [14]?
**A.** 2 µM (inactive)

**Q.** And the GI50 [15]?
**A.** 17.8 µM (inactive)

**Q.** And the GI50 [16]?
**A.** 2.96 µM (inactive)

**Q.** And the GI50 [17]?
**A.** 20.5 µM (inactive)

**Q.** What about the GI50 [18] of the same compound?
**A.** 25.8 µM (inactive)

**Q.** And the GI50 [19]?
**A.** 16.7 µM (inactive)

**Q.** What about the GI50 [20] of the same compound?
**A.** 1.76 µM (inactive)

**Q.** And the GI50 [21]?
**A.** 23.2 µM (inactive)

**Q.** And the GI50 [22]?
**A.** 26.4 µM (inactive)

**Q.** What about the GI50 [23] of the same compound?
**A.** 4.8 µM (inactive)

**Q.** What about the GI50 [24] of the same compound?
**A.** 2.9 µM (inactive)

**Q.** And the GI50 [25]?
**A.** 19.6 µM (inactive)

**Q.** And the GI50 [26]?
**A.** 8.11 µM (inactive)

**Q.** And the GI50 [27]?
**A.** 3.67 µM (inactive)

**Q.** And the GI50 [28]?
**A.** 0.619 µM (active)

**Q.** What about the GI50 [29] of the same compound?
**A.** 1.87 µM (inactive)

**Q.** And the GI50 [30]?
**A.** 20.8 µM (inactive)

**Q.** And the GI50 [31]?
**A.** 6.73 µM (inactive)

**Q.** And the GI50 [32]?
**A.** 20.2 µM (inactive)

**Q.** And the GI50 [33]?
**A.** 1.7 µM (inactive)

**Q.** What about the GI50 [34] of the same compound?
**A.** 24.3 µM (inactive)

**Q.** And the GI50 [35]?
**A.** 2.66 µM (inactive)

**Q.** And the GI50 [36]?
**A.** 2.77 µM (inactive)

**Q.** And the GI50 [37]?
**A.** 17.1 µM (inactive)

**Q.** What about the GI50 [38] of the same compound?
**A.** 6.55 µM (inactive)

**Q.** And the GI50 [39]?
**A.** 17.9 µM (inactive)

**Q.** What about the GI50 [40] of the same compound?
**A.** 2.37 µM (inactive)

**Q.** And the GI50 [41]?
**A.** 3.01 µM (inactive)

**Q.** And the GI50 [42]?
**A.** 17.5 µM (inactive)

**Q.** And the GI50 [43]?
**A.** 17.9 µM (inactive)

**Q.** And the GI50 [44]?
**A.** 19.2 µM (inactive)

**Q.** What about the GI50 [45] of the same compound?
**A.** 3.72 µM (inactive)

**Q.** And the GI50 [46]?
**A.** 22.4 µM (inactive)

**Q.** What about the GI50 [47] of the same compound?
**A.** 17.4 µM (inactive)

**Q.** And the GI50 [48]?
**A.** 17.5 µM (inactive)

**Q.** And the GI50 [49]?
**A.** 16.6 µM (inactive)

**Q.** What about the GI50 [50] of the same compound?
**A.** 21.6 µM (inactive)

**Q.** What about the GI50 [51] of the same compound?
**A.** 5.77 µM (inactive)

**Q.** What about the GI50 [52] of the same compound?
**A.** 0.59 µM (active)

**Q.** And the GI50 [53]?
**A.** 2.25 µM (inactive)

**Q.** And the GI50 [54]?
**A.** 2.7 µM (inactive)

**Q.** And the GI50 [55]?
**A.** 3.9 µM (inactive)

**Q.** What about the GI50 [56] of the same compound?
**A.** 20.2 µM (inactive)

**Q.** And the GI50 [57]?
**A.** 5.93 µM (inactive)

**Q.** What about the GI50 [58] of the same compound?
**A.** 16.9 µM (inactive)

**Q.** What about the GI50 [59] of the same compound?
**A.** 2.06 µM (inactive)

**Q.** For `NC(Cc1cccnn1)C(=O)O` (stereo not drawn), which GI50 [1] is on record?
**A.** > 100 µM (inactive)

**Q.** And the GI50 [2]?
**A.** > 100 µM (inactive)

**Q.** And the GI50 [3]?
**A.** > 100 µM (inactive)

**Q.** And the GI50 [4]?
**A.** > 100 µM (inactive)

**Q.** What about the GI50 [5] of the same compound?
**A.** > 100 µM (inactive)

**Q.** What about the GI50 [6] of the same compound?
**A.** > 100 µM (inactive)

**Q.** And the GI50 [7]?
**A.** > 100 µM (inactive)

**Q.** What about the GI50 [8] of the same compound?
**A.** > 100 µM (inactive)

**Q.** What about the GI50 [9] of the same compound?
**A.** > 100 µM (inactive)

**Q.** And the GI50 [10]?
**A.** > 100 µM (inactive)

**Q.** What about the GI50 [11] of the same compound?
**A.** > 100 µM (inactive)

**Q.** And the GI50 [12]?
**A.** > 100 µM (inactive)

**Q.** And the GI50 [13]?
**A.** > 100 µM

**Q.** What about the GI50 [14] of the same compound?
**A.** > 100 µM (inactive)

**Q.** And the GI50 [15]?
**A.** > 100 µM (inactive)

**Q.** And the GI50 [16]?
**A.** > 100 µM (inactive)

**Q.** What about the GI50 [17] of the same compound?
**A.** > 100 µM (inactive)

**Q.** And the GI50 [18]?
**A.** > 100 µM (inactive)

**Q.** What about the GI50 [19] of the same compound?
**A.** > 100 µM (inactive)

**Q.** And the GI50 [20]?
**A.** > 100 µM (inactive)

**Q.** And the GI50 [21]?
**A.** > 100 µM (inactive)

**Q.** What about the GI50 [22] of the same compound?
**A.** > 100 µM (inactive)

**Q.** And the GI50 [23]?
**A.** > 100 µM (inactive)

**Q.** And the GI50 [24]?
**A.** > 100 µM (inactive)

**Q.** What about the GI50 [25] of the same compound?
**A.** > 100 µM (inactive)

**Q.** And the GI50 [26]?
**A.** > 100 µM (inactive)

**Q.** What about the GI50 [27] of the same compound?
**A.** > 100 µM (inactive)

**Q.** What about the GI50 [28] of the same compound?
**A.** > 100 µM (inactive)

**Q.** And the GI50 [29]?
**A.** > 100 µM (inactive)

**Q.** And the GI50 [30]?
**A.** > 100 µM (inactive)

**Q.** And the GI50 [31]?
**A.** > 100 µM (inactive)

**Q.** What about the GI50 [32] of the same compound?
**A.** > 100 µM (inactive)

**Q.** And the GI50 [33]?
**A.** > 100 µM (inactive)

**Q.** And the GI50 [34]?
**A.** > 100 µM (inactive)

**Q.** What about the GI50 [35] of the same compound?
**A.** > 100 µM (inactive)

**Q.** What about the GI50 [36] of the same compound?
**A.** > 100 µM (inactive)

**Q.** What about the GI50 [37] of the same compound?
**A.** > 100 µM (inactive)

**Q.** What about the GI50 [38] of the same compound?
**A.** > 100 µM (inactive)

**Q.** What about the GI50 [39] of the same compound?
**A.** > 100 µM (inactive)

**Q.** What about the GI50 [40] of the same compound?
**A.** > 100 µM (inactive)

**Q.** What about the GI50 [41] of the same compound?
**A.** > 100 µM (inactive)

**Q.** And the GI50 [42]?
**A.** > 100 µM (inactive)

**Q.** What about the GI50 [43] of the same compound?
**A.** > 100 µM (inactive)

**Q.** What about the GI50 [44] of the same compound?
**A.** > 100 µM (inactive)

**Q.** And the GI50 [45]?
**A.** > 100 µM (inactive)

**Q.** What about the GI50 [46] of the same compound?
**A.** > 100 µM (inactive)

**Q.** What about the GI50 [47] of the same compound?
**A.** > 100 µM (inactive)

**Q.** And the GI50 [48]?
**A.** > 100 µM (inactive)

**Q.** And the GI50 [49]?
**A.** > 100 µM (inactive)

**Q.** And the GI50 [50]?
**A.** > 100 µM (inactive)

**Q.** What about the GI50 [51] of the same compound?
**A.** > 100 µM (inactive)

**Q.** And the GI50 [52]?
**A.** > 100 µM (inactive)

**Q.** And the GI50 [53]?
**A.** > 100 µM (inactive)

**Q.** And the GI50 [54]?
**A.** > 100 µM (inactive)

**Q.** What about the GI50 [55] of the same compound?
**A.** > 100 µM (inactive)

**Q.** What about the GI50 [56] of the same compound?
**A.** > 100 µM (inactive)

**Q.** And the GI50 [57]?
**A.** > 100 µM (inactive)

**Q.** What about the GI50 [58] of the same compound?
**A.** > 100 µM (inactive)

**Q.** What about the GI50 [59] of the same compound?
**A.** > 100 µM (inactive)
